From PMC6814258 (Pharmaceutical research, 2019)
Structures can show the parent of a compound that is named as a salt.

Tests used:
Type in all cases: cell-based
[1] = target: human KV7.1 (Homo sapiens, UniProt P51787); assay: KV7.1 86Rb+ efflux HTS; settings: for inhibition at 10 µM: CHO, read-out: Average percent inhibition at 10 μM (KCNQ1); for Average percent inhibition at 10 μM (KCNQ1): n=2, CHO cells, 86Rb+ efflux, normalized to 10 μM chromanol 293B control
[2] = target: T1, Nav1.8 (Homo sapiens, UniProt Q9Y5Y9); assay: Nav1.8 FLIPR HTS; settings: HEK293, read-out: Average percent inhibition at 10 μM (Nav1.8)
T1 sequence (Q9Y5Y9 whole entry): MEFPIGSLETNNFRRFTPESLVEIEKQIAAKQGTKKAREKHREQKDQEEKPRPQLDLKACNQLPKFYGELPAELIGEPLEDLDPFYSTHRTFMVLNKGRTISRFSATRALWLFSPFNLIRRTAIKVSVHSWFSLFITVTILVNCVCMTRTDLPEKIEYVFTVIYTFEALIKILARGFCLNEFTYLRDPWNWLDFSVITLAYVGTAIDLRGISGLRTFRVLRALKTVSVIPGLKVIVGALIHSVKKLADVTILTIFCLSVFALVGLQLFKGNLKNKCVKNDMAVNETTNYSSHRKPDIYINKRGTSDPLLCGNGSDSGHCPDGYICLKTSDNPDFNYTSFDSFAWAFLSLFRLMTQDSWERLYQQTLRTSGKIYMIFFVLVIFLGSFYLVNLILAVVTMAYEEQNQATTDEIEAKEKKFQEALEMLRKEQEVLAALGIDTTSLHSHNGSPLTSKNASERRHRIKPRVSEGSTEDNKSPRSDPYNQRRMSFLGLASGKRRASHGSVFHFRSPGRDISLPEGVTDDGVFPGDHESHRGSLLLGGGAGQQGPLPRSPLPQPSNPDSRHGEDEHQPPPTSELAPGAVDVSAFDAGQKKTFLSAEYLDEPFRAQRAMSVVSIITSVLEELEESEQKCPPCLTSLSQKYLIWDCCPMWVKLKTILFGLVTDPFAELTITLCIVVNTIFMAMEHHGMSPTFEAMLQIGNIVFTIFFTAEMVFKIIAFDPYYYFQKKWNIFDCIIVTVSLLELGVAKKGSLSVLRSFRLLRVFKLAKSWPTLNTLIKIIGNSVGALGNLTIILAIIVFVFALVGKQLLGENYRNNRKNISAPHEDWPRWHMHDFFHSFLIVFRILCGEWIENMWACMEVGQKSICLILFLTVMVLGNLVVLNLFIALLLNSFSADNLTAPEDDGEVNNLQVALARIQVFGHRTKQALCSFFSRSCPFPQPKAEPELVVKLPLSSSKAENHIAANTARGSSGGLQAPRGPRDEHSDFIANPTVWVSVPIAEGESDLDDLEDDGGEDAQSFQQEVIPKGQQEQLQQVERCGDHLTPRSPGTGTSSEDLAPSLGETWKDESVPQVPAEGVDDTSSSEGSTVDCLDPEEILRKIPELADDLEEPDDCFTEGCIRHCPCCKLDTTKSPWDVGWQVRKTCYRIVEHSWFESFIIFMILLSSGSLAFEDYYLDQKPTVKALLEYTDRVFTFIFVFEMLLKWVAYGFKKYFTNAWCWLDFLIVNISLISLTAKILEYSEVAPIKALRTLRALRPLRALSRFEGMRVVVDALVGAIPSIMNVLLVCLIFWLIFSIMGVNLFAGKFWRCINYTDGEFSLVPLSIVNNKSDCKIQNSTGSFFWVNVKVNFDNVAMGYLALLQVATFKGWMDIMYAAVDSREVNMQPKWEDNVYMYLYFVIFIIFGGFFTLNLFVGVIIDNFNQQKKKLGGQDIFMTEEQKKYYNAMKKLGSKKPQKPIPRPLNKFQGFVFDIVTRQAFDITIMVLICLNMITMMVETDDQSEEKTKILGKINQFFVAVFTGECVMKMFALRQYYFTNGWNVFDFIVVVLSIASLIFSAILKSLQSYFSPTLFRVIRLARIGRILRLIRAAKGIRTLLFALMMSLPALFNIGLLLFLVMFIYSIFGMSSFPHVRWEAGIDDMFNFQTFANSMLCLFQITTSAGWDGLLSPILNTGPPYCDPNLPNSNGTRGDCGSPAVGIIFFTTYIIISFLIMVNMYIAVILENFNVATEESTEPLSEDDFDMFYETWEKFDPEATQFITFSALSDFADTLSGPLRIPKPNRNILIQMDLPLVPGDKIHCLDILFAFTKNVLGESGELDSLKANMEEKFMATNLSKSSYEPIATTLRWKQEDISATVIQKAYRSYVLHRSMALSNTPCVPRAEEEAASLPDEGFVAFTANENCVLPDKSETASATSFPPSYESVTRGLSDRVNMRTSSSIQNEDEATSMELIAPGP

[3] = target: T1, Nav1.8; assay: Nav1.8 automated patch clamp

Sequence of human KV7.1 (P51787 whole entry): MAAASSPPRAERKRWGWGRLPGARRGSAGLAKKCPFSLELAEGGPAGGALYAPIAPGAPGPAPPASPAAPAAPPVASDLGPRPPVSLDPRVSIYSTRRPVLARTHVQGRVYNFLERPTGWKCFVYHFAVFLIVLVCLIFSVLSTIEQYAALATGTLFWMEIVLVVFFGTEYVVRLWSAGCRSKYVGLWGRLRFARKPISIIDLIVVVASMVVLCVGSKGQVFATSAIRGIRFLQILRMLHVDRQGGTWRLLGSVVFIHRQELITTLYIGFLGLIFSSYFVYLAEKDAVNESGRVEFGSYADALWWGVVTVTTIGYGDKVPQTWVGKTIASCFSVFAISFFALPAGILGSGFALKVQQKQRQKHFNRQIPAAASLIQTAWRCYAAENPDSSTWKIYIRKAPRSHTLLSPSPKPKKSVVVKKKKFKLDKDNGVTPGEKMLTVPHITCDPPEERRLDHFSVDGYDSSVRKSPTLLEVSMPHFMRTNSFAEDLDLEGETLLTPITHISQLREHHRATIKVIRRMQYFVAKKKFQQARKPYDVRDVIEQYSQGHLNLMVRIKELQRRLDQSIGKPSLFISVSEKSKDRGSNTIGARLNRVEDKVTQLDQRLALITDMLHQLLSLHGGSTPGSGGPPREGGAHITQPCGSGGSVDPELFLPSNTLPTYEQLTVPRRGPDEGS

Row | SMILES | inhibition at 10 µM [1] [%] | inhibition at 10 µM [2] [%] | further results
1 | Oc1cc(Cl)ccc1Oc1ccc(Cl)cc1Cl [Triclosan] | 74 | 87.8 | –
2 | CC/C(=C(/CC)c1ccc(O)cc1)c1ccc(O)cc1 [Diethylstilbestrol] | 90.2 | 99.5 | –
3 | O=C(c1ccc(OCCN2CCCCC2)cc1)c1c(-c2ccc(O)cc2)sc2cc(O)ccc12 [Raloxifene hydrochloride] | 43.3 | 88.4 | –
4 | CCOC1O[C@H]([C@@H](COCc2ccccc2)OCc2ccccc2)[C@H](OCc2ccccc2)[C@H]1O (some centres unmarked) [Tribenoside] | 48.8 | 86.2 | –
5 | COC(=O)C1=C(C#N)NC(C)=C(C(=O)OC(C)C)C1c1cccc([N+](=O)[O-])c1 (centres unmarked) [Nilvadipine] | – | 87.9 | IC50 [3]: 600 nM
6 | CC(=O)SCC(Cc1ccccc1)C(=O)NCC(=O)OCc1ccccc1 (centres unmarked) [Racecadotril] | 46.4 | 94.8 | –
7 | C[C@H](CCC(=O)O)[C@H]1CC[C@H]2[C@@H]3CC[C@@H]4C[C@H](O)CC[C@]4(C)[C@H]3CC[C@]12C [Lithocholic acid] | 80.8 | – | –
8 | Clc1ccc(C(Cn2ccnc2)OCc2ccsc2Cl)c(Cl)c1 (centres unmarked) [Tioconazole] | 53.5 | – | –
9 | CC[C@H](c1ccc(O)cc1)[C@@H](CC)c1ccc(O)cc1 [Hexestrol] | 82 | 91.6 | –
10 | COC1=C(OC)C(=O)C(CCCCCCCCCCO)=C(C)C1=O [Idebenone] | 59 | – | –
11 | COC(=O)C1=C(C)NC(C)=C(C(=O)OCCN(C)Cc2ccccc2)C1c1cccc([N+](=O)[O-])c1 (centres unmarked) [Nicardipine hydrochloride] | 50.7 | 123 | IC50 [3]: 600 nM
12 | C[C@]12Cc3c[nH]nc3C[C@@H]1CC[C@@H]1[C@@H]2CC[C@@]2(C)[C@H]1CC[C@]2(C)O [Stanozolol] | 43.6 | – | –
13 | O=C(OCCOCCO)c1ccccc1Nc1cccc(C(F)(F)F)c1 [Etofenamate] | 51.8 | – | –
14 | COc1ccc(Cc2nccc3cc(OC)c(OC)cc23)cc1OC [Papaverine hydrochloride] | 45.6 | – | –
15 | COC(=O)C1=C(C)NC(C)=C(C(=O)OCC(C)C)C1c1ccccc1[N+](=O)[O-] (centres unmarked) [Nisoldipine] | 48 | – | –
16 | O=C1Nc2ccc(Cl)cc2[C@@](C#CC2CC2)(C(F)(F)F)O1 [Efavirenz] | 80.3 | – | –

Row | SMILES | inhibition at 10 µM [1] [%] | inhibition at 10 µM [2] [%] | further results
17 | CCOC(=O)C1=C(C)NC(C)=C(C(=O)OC)C1c1cccc([N+](=O)[O-])c1 (centres unmarked) [Nitrendipine] | 46.1 | – | –
18 | C[C@]12CC[C@H]3C(=CCc4cc(O)ccc43)[C@@H]1CCC2=O [Equilin] | 64.6 | – | –
19 | COCCOC(=O)C1=C(C)NC(C)=C(C(=O)OC(C)C)C1c1cccc([N+](=O)[O-])c1 (centres unmarked) [Nimodipine] | – | 96.1 | IC50 [3]: 1200 nM
20 | CN1CCN(C(c2ccccc2)c2ccccc2)CC1.Cl [Cyclizine hydrochloride] | – | – | Average percent inhibition at 10 μM (KCNQ1) [1]: 45.9%
21 | CS(=O)(=O)Nc1ccc([N+](=O)[O-])cc1Oc1ccccc1 [Nimesulide] | 47.9 | – | –
22 | CC(C)OC(=O)C(C)(C)Oc1ccc(C(=O)c2ccc(Cl)cc2)cc1 [Fenofibrate] | 64 | – | –
23 | Clc1ccc(COC(Cn2ccnc2)c2ccc(Cl)cc2Cl)c(Cl)c1 (centres unmarked) [Miconazole] | 79.8 | – | –
24 | CC1(C)O[C@@H]2[C@@H](CO[C@@]3(COS(N)(=O)=O)OC(C)(C)O[C@@H]23)O1 [Topiramate] | 44.3 | – | –
25 | CCSc1ccc2c(c1)N(CCCN1CCN(C)CC1)c1ccccc1S2.O=C(O)CC(O)C(=O)O.O=C(O)CC(O)C(=O)O [Thiethylperazine dimalate] | – | – | Average percent inhibition at 10 μM (KCNQ1) [1]: 56.9%
26 | C#C[C@]1(O)CC[C@H]2[C@@H]3[C@H](C)CC4=C(CCC(=O)C4)[C@H]3CC[C@@]21C [Tibolone] | 87.6 | – | –
27 | COC(=O)C1=C(C)NC(C)=C(C(=O)OC2CCCN(Cc3ccccc3)C2)C1c1cccc([N+](=O)[O-])c1 (centres unmarked) [Benidipine hydrochloride] | 51.1 | 113 | IC50 [3]: 4400 nM
28 | Clc1ccc(C(Cn2ccnc2)OCc2c(Cl)cccc2Cl)c(Cl)c1 (centres unmarked) [Isoconazole] | 61.2 | – | –
29 | CC(C)c1c(CN(C)C(C)Cc2ccccc2)n(C)n(-c2ccccc2)c1=O (centres unmarked) [Famprofazone] | 50.7 | – | –
30 | Cc1c(C)c2c(c(C)c1O)CCC(C)(COc1ccc(CC3SC(=O)NC3=O)cc1)O2 (centres unmarked) [Troglitazone] | 73 | – | –
31 | NS(=O)(=O)c1cc2c(cc1Cl)NC(CC1CCCC1)NS2(=O)=O (centres unmarked) [Cyclopenthiazide] | 68.3 | – | –
32 | CN1CCCN(C(c2ccccc2)c2ccc(Cl)cc2)CC1.Cl.Cl (centres unmarked) [Homochlorcyclizine dihydrochloride] | – | – | Average percent inhibition at 10 μM (KCNQ1) [1]: 43.5%
